The target of one assay is SST5 (Homo sapiens, UniProt P35346). The assay can be described thus: Hit Hunter cAMP XS+ assay, SST5 activation via Gi (reduction of forskolin-stimulated cAMP). The format is cell-based. The note with it: for Emax: read-out: SST5 (EMax); for EC50: reduction of forskolin-stimulated cAMP, 4-parameter logistic fit, read-out: SST5 pEC50 (converted); for SST5/2 Selectivity: selectivity for SST5 over SST2. As for the experimental part:
(§1) A Hit Hunter® cAMP XS+ assay was used to monitor activation of the SST2 and SST5 via the Gi G protein. Cells were pre-stimulated with forskolin to elicit a cAMP response and the potency and efficacy of somatostatin agonists to reduce cAMP was measured. Briefly cells (10,000 cells/well) were incubated (37° C.; 30 min) with compound ([…]) in media (2:1 HBSS/11 mM Hepes: cAMP XS+Ab reagent) in the presence of EC80 forskolin ([…] and 15 μM SST5). Signal was detected through incubation with 20 μL cAMP XS+ED/CL lysis cocktail ([…]; RT) followed by incubation with […] cAMP XS+EA reagent (180 min; RT). Microplates were read with a PerkinElmer Envision™ instrument for chemiluminescent signal detection.

A further assay deals with SST2 (Homo sapiens, UniProt P30874). The assay is described as follows: Hit Hunter cAMP XS+ assay, SST2 activation via Gi (reduction of forskolin-stimulated cAMP). It counts as cell-based. Conditions: for Emax: read-out: SST2 (EMax); for EC50: reduction of forskolin-stimulated cAMP, 4-parameter logistic fit, read-out: SST2 pEC50 (converted). As for the experimental part:
as §1

*1 amine or outer side, *2 acyl side, *3 side chain or, on linkers, in order; H or OH if unused. Where a SMILES comes first, the peptide text is derived from it. Side-chain parts run from the residue outwards. [ ]: non-standard residue; d: D form. The star is where a group is joined. Ala(piperidin-4-yl) = O=C([C@H](CC1CCN([*:3])CC1)N[*:1])[*:2]; X2 = O=C([C@@H]1C[C@@H](Oc2ccncc2)CN1[*:1])[*:2]; dTrp(5-Me) = Cc1ccc2[nH]cc(C[C@@H](N)C(=O)O)c2c1; Ala(piperazin-1-yl) = N[C@@H](CN1CCNCC1)C(=O)O; Ethylenediamine = C(CN[*:2])N[*:1]; d(hPhe) = N[C@H](CCc1ccccc1)C(=O)O; Hyp = O=C(O)[C@@H]1C[C@@H](O)CN1; hPhe = N[C@@H](CCc1ccccc1)C(=O)O; 3Pal = N[C@@H](Cc1cccnc1)C(=O)O; Tic = O=C(O)[C@@H]1Cc2ccccc2CN1; Phg = N[C@H](C(=O)O)c1ccccc1; CO = O=C([*:1])[*:2]; Bn = c1ccc(C*)cc1

Sequence of SST2 (P30874 whole entry): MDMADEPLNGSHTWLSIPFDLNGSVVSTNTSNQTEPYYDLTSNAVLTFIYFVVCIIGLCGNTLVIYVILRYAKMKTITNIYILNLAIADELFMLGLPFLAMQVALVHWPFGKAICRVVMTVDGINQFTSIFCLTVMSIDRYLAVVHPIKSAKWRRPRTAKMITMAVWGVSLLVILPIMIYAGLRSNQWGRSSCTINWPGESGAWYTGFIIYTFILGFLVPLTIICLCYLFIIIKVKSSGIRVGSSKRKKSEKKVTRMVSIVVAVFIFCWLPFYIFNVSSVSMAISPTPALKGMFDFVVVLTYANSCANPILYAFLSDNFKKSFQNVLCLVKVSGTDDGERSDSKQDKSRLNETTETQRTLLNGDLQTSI
Sequence of SST5 (P35346 whole entry): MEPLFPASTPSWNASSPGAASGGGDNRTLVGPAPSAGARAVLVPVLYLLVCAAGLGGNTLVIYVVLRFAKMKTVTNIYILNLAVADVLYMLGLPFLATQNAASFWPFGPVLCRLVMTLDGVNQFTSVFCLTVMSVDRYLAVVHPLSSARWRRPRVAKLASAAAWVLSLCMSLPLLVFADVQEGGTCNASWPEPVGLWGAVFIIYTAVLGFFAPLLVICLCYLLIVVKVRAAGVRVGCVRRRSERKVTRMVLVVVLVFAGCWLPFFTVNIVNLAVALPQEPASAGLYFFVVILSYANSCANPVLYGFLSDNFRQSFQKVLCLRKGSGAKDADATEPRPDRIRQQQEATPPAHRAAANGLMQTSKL

As to `Cc1ccc2[nH]cc(C[C@H]3NC(=O)[C@H](c4ccccc4)NC(=O)[C@@H]4C[C@@H](OC(=O)NCCN)CN4C(=O)[C@H](Cc4ccccc4)NC(=O)[C@H](Cc4ccc(OCc5ccccc5)cc4)NC(=O)[C@H](CC4CCNCC4)NC3=O)c2c1` [Example 13] (cyclo(F[Hyp]([CO-Ethylenediamine])[Phg][dTrp(5-Me)][Ala(piperidin-4-yl)]Y(Bn))), on SST5, the maximal response (Emax) amounted to 98.7%, the EC50 is 2.51 nM and the “SST5/2 Selectivity” value is listed as 87.2. On SST2, the Emax stood at 97.6% and the EC50 was 200 nM.
As for `NCCNC(=O)O[C@@H]1C[C@H]2C(=O)N[C@@H](CCc3ccccc3)C(=O)N[C@H](Cc3c[nH]c4ccccc34)C(=O)N[C@@H](CN3CCNCC3)C(=O)N[C@@H](Cc3ccc(OCc4ccccc4)cc3)C(=O)N[C@@H](Cc3cccnc3)C(=O)N2C1` [Example 14] (cyclo([3Pal][Hyp]([CO-Ethylenediamine])[hPhe][dW][Ala(piperazin-1-yl)]Y(Bn))), at SST5, the Emax was found to be 96.7%, the EC50 is 0.0794 nM and the “SST5/2 Selectivity” value was found to be 1876.8. Moreover, at SST2, the maximal effect (Emax) turned out to be 99.6% and the EC50 was 158 nM.
On the same counts, the results for `NCCNC(=O)O[C@@H]1C[C@H]2C(=O)N[C@H](CCc3ccccc3)C(=O)N[C@H](Cc3c[nH]c4ccccc34)C(=O)N[C@@H](CC3CCNCC3)C(=O)N[C@@H](Cc3ccc(OCc4ccccc4)cc3)C(=O)N[C@@H](Cc3cccnc3)C(=O)N2C1` [Example 15] (cyclo([3Pal][Hyp]([CO-Ethylenediamine])[d(hPhe)][dW][Ala(piperidin-4-yl)]Y(Bn))) are 101%, 20 nM, 531.3, 55.5% and greater than 10000 nM.
As to `NCCNC(=O)O[C@@H]1C[C@H]2C(=O)N[C@H](CCc3ccccc3)C(=O)N[C@H](Cc3c[nH]c4ccccc34)C(=O)N[C@@H](CN3CCNCC3)C(=O)N[C@@H](Cc3ccc(OCc4ccccc4)cc3)C(=O)N[C@@H](Cc3cccnc3)C(=O)N2C1` [Example 16] (cyclo([3Pal][Hyp]([CO-Ethylenediamine])[d(hPhe)][dW][Ala(piperazin-1-yl)]Y(Bn))), on SST5, the maximal effect (Emax) was determined as 100%, the EC50 was 3.98 nM and the “SST5/2 Selectivity” value is on record as 2729.5. For the same molecule, at SST2, the Emax is 79.5% and the EC50 was greater than 10000 nM.
Taken in the same sequence, the figures for `NCCNC(=O)O[C@@H]1C[C@H]2C(=O)N[C@@H](CCc3ccccc3)C(=O)N[C@H](Cc3c[nH]c4ccccc34)C(=O)N[C@@H](CC3CCNCC3)C(=O)N[C@@H](Cc3ccc(OCc4ccccc4)cc3)C(=O)N3Cc4ccccc4C[C@H]3C(=O)N2C1` [Example 17] (cyclo([Hyp]([CO-Ethylenediamine])[hPhe][dW][Ala(piperidin-4-yl)]Y(Bn)[Tic])) were 104%, 0.501 nM, 789.4, 97.3% and 398 nM.
On the same counts, the results for `NCCNC(=O)O[C@@H]1C[C@H]2C(=O)N[C@@H](CCc3ccccc3)C(=O)N[C@@H](Cc3c[nH]c4ccccc34)C(=O)N[C@@H](CC3CCNCC3)C(=O)N[C@@H](Cc3ccc(OCc4ccccc4)cc3)C(=O)N3Cc4ccccc4C[C@H]3C(=O)N2C1` [Example 19] (cyclo([Hyp]([CO-Ethylenediamine])[hPhe]W[Ala(piperidin-4-yl)]Y(Bn)[Tic])) are 99.8%, 20 nM, 5.5, 75.5% and 100 nM.
On the same counts, the results for `O=C1N[C@@H](Cc2cccnc2)C(=O)N2C[C@H](Oc3ccncc3)C[C@H]2C(=O)N[C@H](CCc2ccccc2)C(=O)N[C@H](Cc2c[nH]c3ccccc23)C(=O)N[C@@H](CC2CCNCC2)C(=O)N[C@H]1Cc1ccc(OCc2ccccc2)cc1` [Example 20] (cyclo([3Pal][X2][d(hPhe)][dW][Ala(piperidin-4-yl)]Y(Bn))) are 99.6%, 6.31 nM, 418.4, 98% and 3160 nM.
Regarding `O=C1N[C@@H](Cc2cccnc2)C(=O)N2C[C@H](Oc3ccncc3)C[C@H]2C(=O)N[C@@H](CCc2ccccc2)C(=O)N[C@H](Cc2c[nH]c3ccccc23)C(=O)N[C@@H](CC2CCNCC2)C(=O)N[C@H]1Cc1ccc(OCc2ccccc2)cc1` [Example 22] (cyclo([3Pal][X2][hPhe][dW][Ala(piperidin-4-yl)]Y(Bn))), on SST5, the maximal response (Emax) was found to be 102%, the EC50 was 0.501 nM and the “SST5/2 Selectivity” value is 142.6. Besides, on SST2, the Emax is 100% and the EC50 was 79.4 nM.
On the same counts, the results for `O=C1N[C@@H](Cc2ccc(OCc3ccccc3)cc2)C(=O)N[C@@H](Cc2cccnc2)C(=O)N2C[C@H](Oc3ccncc3)C[C@H]2C(=O)N[C@@H](CCc2ccccc2)C(=O)N[C@@H](Cc2c[nH]c3ccccc23)C(=O)N[C@H]1CC1CCNCC1` [Example 23] (cyclo([3Pal][X2][hPhe]W[Ala(piperidin-4-yl)]Y(Bn))) are 101%, 3.98 nM, 148.7, 96.6% and 631 nM.
On the same counts, the results for `O=C1N[C@@H](Cc2ccc(OCc3ccccc3)cc2)C(=O)N[C@@H](Cc2cccnc2)C(=O)N2C[C@H](Oc3ccncc3)C[C@H]2C(=O)N[C@H](CCc2ccccc2)C(=O)N[C@@H](Cc2c[nH]c3ccccc23)C(=O)N[C@H]1CC1CCNCC1` [Example 24] (cyclo([3Pal][X2][d(hPhe)]W[Ala(piperidin-4-yl)]Y(Bn))) are 102%, 100 nM, 110.6, 46.8% and greater than 10000 nM.
Taken in the same sequence, the figures for `NCCNC(=O)O[C@@H]1C[C@H]2C(=O)N[C@H](CCc3ccccc3)C(=O)N[C@H](Cc3c[nH]c4ccccc34)C(=O)N[C@@H](CN3CCNCC3)C(=O)N[C@@H](Cc3ccc(OCc4ccccc4)cc3)C(=O)N3Cc4ccccc4C[C@H]3C(=O)N2C1` [Example 25] (cyclo([Hyp]([CO-Ethylenediamine])[d(hPhe)][dW][Ala(piperazin-1-yl)]Y(Bn)[Tic])) were 102%, 0.126 nM, 1351.8, 100% and 200 nM.
`NCCNC(=O)O[C@@H]1C[C@H]2C(=O)N[C@@H](CCc3ccccc3)C(=O)N[C@H](Cc3c[nH]c4ccccc34)C(=O)N[C@@H](CN3CCNCC3)C(=O)N[C@@H](Cc3ccc(OCc4ccccc4)cc3)C(=O)N3Cc4ccccc4C[C@H]3C(=O)N2C1` [Example 26] (cyclo([Hyp]([CO-Ethylenediamine])[hPhe][dW][Ala(piperazin-1-yl)]Y(Bn)[Tic])): at SST5, the Emax was 99.1%, the EC50 was 0.126 nM and the “SST5/2 Selectivity” value worked out at 4067.3. Also, at SST2, the Emax turned out to be 66.6% and the EC50 was 501 nM.

The Emax is the size of the effect at its maximum, as opposed to the concentration needed.

These data come from patent publication US11987648B2, “Cyclohexapeptides as selective somatostatin SST5 receptor agonists” (Heptares Therapeutics Limited, priority 2018, dated 2024).
